Source: publication PMC3202585, “Venom of Parasitoid, Pteromalus puparum, Suppresses Host, Pieris rapae, Immune Promotion by Decreasing Host C-Type Lectin Gene Expression” (PLoS ONE, 2011)

Biological target: T1, Pr-CTL (Pieris rapae, UniProt G5CJE6)
T1 construct: two tandem CRDs (residues 41-151 and 184-302)
T1 sequence (G5CJE6 20-313): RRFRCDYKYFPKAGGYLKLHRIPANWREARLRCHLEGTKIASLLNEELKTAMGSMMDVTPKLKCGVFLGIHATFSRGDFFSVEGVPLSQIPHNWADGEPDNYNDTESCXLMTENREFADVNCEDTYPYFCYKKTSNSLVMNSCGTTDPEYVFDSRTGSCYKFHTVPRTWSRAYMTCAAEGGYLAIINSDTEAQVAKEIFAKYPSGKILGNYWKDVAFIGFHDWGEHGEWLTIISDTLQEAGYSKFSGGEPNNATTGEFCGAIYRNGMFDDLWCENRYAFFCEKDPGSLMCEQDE
Assay: carbohydrate binding assay (data not shown)
Conditions: calcium-dependent, described as agglutination of carbohydrates

SMILES: OC[C@H]1OC(O)[C@@H](O)[C@@H](O)[C@@H]1O (some centres unmarked) [mannose]
- carbohydrate binding assay (data not shown): recombinant Pr-CTL possesses the calcium-dependent agglutination of different kind of carbohydrates, such as mannose

SMILES: OC[C@H]1OC(O)[C@H](O)[C@@H](O)[C@H]1O (some centres unmarked) [galactose]
- carbohydrate binding assay (data not shown): agglutination of different kind of carbohydrates, such as mannose, galactose and peptidoglycan (data not shown)
